{"source": "patent US20030124590A1", "about": "“Carbohydrate response element binding protein and uses thereof” (priority 2001, published 2003)", "molecules": {"B1": {"name": "LPK ChRE WT (dsDNA)", "DNA 1": "GGGCGCACGGGGCACTCCCGTGGTTCC", "DNA 2": "GGAACCACGGGAGTGCCCCGTGCGCCC"}, "B2": {"name": "DNA-affinity column ChRE (dsDNA)", "DNA 1": "CATGGGCGCACGGGGCACTCCCGTGGTTCC", "DNA 2": "GGAACCACGGGAGTGCCCCGTGCGCCCATG"}}, "key": {"L-PK gene": {"test_system": "L-PK gene", "assay": "L-PK promoter luciferase reporter in ChREBP-transfected primary hepatocytes with kinase/phosphatase inhibitors or db-cAMP", "conditions": "treatment with db-cAMP, low and high glucose", "method": "Primary hepatocytes were prepared from male Sprague-Dawley rats using the collagenase (Life Technologies, Inc.) perfusion method (Berry and Friend (1969) J Cell Bio […], 506-520) and plated in collagen-coated six-well tissue culture plates (Primaria Falcon, Franklin Lakes, N.J.) at a density of 1×10^6 cells/well in glucose-free Dulbecco's modified Eagle's medium (Life Technologies, Inc.) supplemented with 100 nM dexamethasone, 10 nM insulin, 100 units/ml penicillin, 100 μg/ml streptomycin and 10% dialyzed fetal bovine serum (Life Technologies, Inc.). Following attachment, synthetic liposomes were used to transfect hepatocytes with 0.5 μg of the luciferase reporter plasmid and 0.1 μg of the internal control plasmid pRL-TK. After 14 h the media was replaced by Dulbecco's modified Eagle medium supplemented with 100 nM dexamethasone, 10 nM insulin, 10% Fetal Bovine Serum and either 10 mM lactate, 5.5 mM glucose or 27.5 mM glucose. The cells were incubated for an additional 12 h prior to determination of luciferase activity using the Dual-Luciferase Reporter Assay System (Promega).\nProtein Kinase and Protein Phosphatase Inhibitors—Prior to exchange to 5.5 or 27.5 mM glucose medium, transfected primary culture hepatocytes were treated for 1 h with 10 μM H-89, 500 nM cantharidic acid (Calbiochem), 5 μM KN-62 (Calbiochem), 30 μM PD98059 (Calbiochem), 50 μM Genistein, or dimethylsulfoxide vehicle.\nRat primary cultured hepatocytes were transfected a plasmid comprising a gene encoding the wild type (WT)-ChREBP. H-89, cantharidic acid, or dimethylsulfoxide vehicle was added, and the cells were incubated in 5.5 mM (□) or 27.5 mM (▪) glucose for 12 h.\nRat primary cultured hepatocytes were transfected with wild type (WT)-ChREBP, S626A, S626D, T666A, or T666D. After transfection, the cells were incubated in 5.5 mM (□) or 27.5 mM (▪) glucose for 12 h. […] Rat primary cultured hepatocytes were transfected with wild type (WT)-ChREBP, S196A+S626A, or S196A+T666A. After transfection, cells were incubated under 5.5 mM (□) or 27.5 mM (▪) glucose, and cAMP was added both low and high glucose."}, "GFP-fused ChREBP": {"test_system": "GFP-fused ChREBP", "assay": "Subcellular localization of GFP-fused ChREBP in primary hepatocytes (confocal microscopy)", "format": "cell-based, rat", "conditions": "within 10 min after addition of db-cAMP into 27.5 mM glucose medium, preliminary, n=3", "method": "Determination of Subcellular Localization of ChREBP—Subcellular localization of GFP-fused WT-ChREBP or its mutants was determined using a confocal laser scanning microscope (Bio Rad, Hercules, Calif.). In order to quantitate nuclear localization of ChREBP, for each condition, 100 transfected hepatocytes from 5 independent experiments were scored in a blinded fashion as to whether the GFP-fused ChREBP was predominantly nuclear or cytoplasmic. The identity of the nucleus was verified by comparative phase-contrast microscopy. B. Results\nRat primary cultured hepatocytes were transfected with a plasmid comprising a gene encoding the GFP-fused wild type-ChREBP or NLS domain deletion mutants. […] The values are expressed as mean±SE. *P<0.05 compared to that of wild type-ChREBP."}, "ChREBP [1]": {"test_system": "ChREBP", "assay": "Intraperitoneal db-cAMP in rats, gel shift of liver nuclear extracts", "format": "in vivo, rat", "conditions": "rats fed high carbohydrate diet, db-cAMP 1 mmol/kg intraperitoneally", "method": "Treatment of Rats with Dibutyryl (db)-cAMP and Nuclear Extract Preparation—Male Sprague-Dawley rats weighting 250 g were used in all experiments. After 48 h starvation, the rats were fed a high carbohydrate diet and db-cAMP (1 mmol/kg) was injected intraperitoneally. The rats were sacrificed 10 min and 30 min after injection and nuclear extracts were prepared immediately from rat liver as described in Example 1. Gel shifts were performed as described in Example 2."}, "cultured hepatocytes": {"test_system": "cultured hepatocytes", "assay": "AMP, ADP, ATP assays in cultured hepatocytes", "format": "cell-based, rat", "conditions": "hepatocytes 12 h with 150 µM fatty acid, mean±S.E., n=4", "method": "Hepatocytes were scraped and collected directly into 0.5 ml of ice-cold 6% (v/v) HClO4. The concentrations of ADP and ATP were determined enzymatically in the acid-extract with methods described (Kawaguchi, T., Veech, R. L., and Uyeda, K. (2001) J. Biol. Chem. 276, 28554-28561), and the cytosolic AMP was calculated by the method of Veech et al. (Veech, R. L., Lawson, J. W., Cornell, N. W., and Krebs, H. A. (1979) J. Biol. Chem. 254, 6538-6547).\nValues are expressed as mean±S.E. (n=4)."}, "AMPK": {"test_system": "AMPK", "assay": "AMPK activity in hepatocytes (SAMS peptide)", "format": "cell-based, rat", "conditions": "fatty acid added to high glucose medium", "method": "The extract was centrifuged at 15,800·g for 15 min, and the resulting supernatant solution was transferred to a fresh tube, adjusted to 10% with polyethylene glycol 8000 ([…], France), and incubated on ice for 20 min. Following centrifugation at 15,800·g for 15 min, the pellet was suspended in 100 μl buffer A. […] A. (2000) Proc. Natl. Acad. Sci. USA. 97, 4023-4028)."}, "ChREBP [2]": {"test_system": "ChREBP", "assay": "Gel shift of purified ChREBP after incubation with PKA/PP2A in vitro", "format": "biochemical, rat", "conditions": "catalytic subunit of PP2A 0.025 U/μl added", "method": "Gel shift assay. Gel mobility shift assays were performed as described by Liu et al. (Liu et al. (1993) J Biol Chem 268, 12787-12795). Double-stranded oligonucleotides (Table 1) were prepared by mixing equal amounts of the complementary single-stranded DNAs in 50 mM NaCl, heating to 70° C. for 15 min, and cooling to room temperature. The annealed oligonucleotides were labeled with ^32P in the presence of [γ^32P]-ATP (Amersham Pharmacia) and T4 polynucleotide kinase (New England Biolabs). Binding reactions were carried out in reaction mixture containing 20 mM Hepes (pH 7.9), 50 mM KCl, 5 mM DTT, 0.2 mM EDTA, 0.5 mM PMSF, 10% glycerol, 1 μg/μl of poly(dI-dC) (Amersham Pharmacia) and 1 μg/μl of nuclear extract. The reaction mixture was incubated at room temperature for 30 min and DNA-protein complexes were separated by electrophoresis in a 4.5% nondenaturing polyacrylamide gel.\nPurified ChREBP was incubated with PKA and/or PP2A in vitro and measured by gel-shift analysis with the [^32P]-radiolabeled WT oligonucleotide. Purified ChREBP was incubated for 20 min with ATP (1 mM), PKA (0.1 U/μl), 0.2 U/μl PKI, 0.025 U/μl PP2A and the PP2A inhibitor, okadaic acid (10 nM)."}, "[3]": {"test_system": "C-terminus ChREBP (bHLH/ZIP domain, Thr666)", "assay": "Phosphorylation/dephosphorylation and DNA binding of recombinant C-terminus ChREBP", "format": "biochemical, mouse", "conditions": "catalytic subunit of PP2A 200 units, 30° C", "description": "Recombinant Protein Production—Recombinant protein of mouse ChREBP was expressed in Escherichia coli by inserting the C-terminus of the ChREBP construct, encoding the amino acids 651-864 of ChREBP+His6 tag, into the BamHI and HindIII sites of the T7-based expression vector pMal-c2 (New England Bio Lab, Beverly, Mass.) to produce an N-terminal fusion with maltose-binding protein. Expressed protein was purified according to manufacturer's instruction.\nPhosphorylation and Dephosphorylation of ChREBP—The reaction mixture contained, in a final volume of 0.2 ml, 50 mM Tris/Cl pH 7.5, 0.2 μM [γ-^32P]ATP (3000 Ci/mmol), 5 mM MgCl2, 0.2 mM EDTA, 2 mM dithiothreitol, and 5 mM potassium phosphate. […] At given time intervals, aliquots were removed and DNA-binding activity was determined by gel shift assay as described in Example 2. [^32P]phosphate-bound ChREBP was also determined as previously described (Kitajima and Uyeda (1983) J. Biol Chem 258, 7352-7357).\nFIG. 13A is a graph showing that phosphate incorporation mediated by PKA correlates directly with DNA binding. […] At given time intervals, [^32P]phosphate incorporation (□) and DNA-binding activity (▪) were determined. Values are expressed as mean±SE. […] At given time intervals, remaining phosphorylated C-terminus ChREBP (□) and DNA-binding activity (▪) were determined. Values are expressed as mean±SE."}, "[4]": {"biological_target": "T1, ChREBP (Carbohydrate Response Element Binding Protein) from rat liver (UniProt Q8VIP2)", "T1 sequence": "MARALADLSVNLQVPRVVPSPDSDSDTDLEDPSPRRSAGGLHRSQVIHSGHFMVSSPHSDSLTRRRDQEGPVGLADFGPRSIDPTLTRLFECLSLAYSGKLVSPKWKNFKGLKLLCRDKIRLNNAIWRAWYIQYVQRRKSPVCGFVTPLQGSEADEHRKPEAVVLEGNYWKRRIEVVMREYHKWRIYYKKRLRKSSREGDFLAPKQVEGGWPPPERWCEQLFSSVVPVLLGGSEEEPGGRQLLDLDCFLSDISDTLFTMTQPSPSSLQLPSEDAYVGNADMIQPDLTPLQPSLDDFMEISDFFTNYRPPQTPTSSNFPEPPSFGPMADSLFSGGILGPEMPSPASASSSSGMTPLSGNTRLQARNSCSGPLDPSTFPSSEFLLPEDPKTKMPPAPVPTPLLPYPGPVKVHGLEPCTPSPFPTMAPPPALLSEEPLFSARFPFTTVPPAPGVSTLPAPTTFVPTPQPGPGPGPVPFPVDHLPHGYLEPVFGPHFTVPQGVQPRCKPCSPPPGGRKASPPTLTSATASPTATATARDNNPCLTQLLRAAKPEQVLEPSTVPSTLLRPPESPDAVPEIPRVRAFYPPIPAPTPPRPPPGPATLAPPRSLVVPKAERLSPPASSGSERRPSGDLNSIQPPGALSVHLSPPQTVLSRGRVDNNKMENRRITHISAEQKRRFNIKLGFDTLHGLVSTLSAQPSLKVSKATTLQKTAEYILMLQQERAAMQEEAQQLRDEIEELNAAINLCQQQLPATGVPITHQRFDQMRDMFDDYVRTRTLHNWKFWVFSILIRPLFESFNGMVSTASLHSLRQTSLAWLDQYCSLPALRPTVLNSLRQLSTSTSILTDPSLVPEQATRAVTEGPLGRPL"}, "[5]": {"biological_target": "T2, ChREBP, purified from rat liver (Rattus norvegicus, UniProt Q8VIP2 Q8VIP2:1-865)", "T2 sequence": "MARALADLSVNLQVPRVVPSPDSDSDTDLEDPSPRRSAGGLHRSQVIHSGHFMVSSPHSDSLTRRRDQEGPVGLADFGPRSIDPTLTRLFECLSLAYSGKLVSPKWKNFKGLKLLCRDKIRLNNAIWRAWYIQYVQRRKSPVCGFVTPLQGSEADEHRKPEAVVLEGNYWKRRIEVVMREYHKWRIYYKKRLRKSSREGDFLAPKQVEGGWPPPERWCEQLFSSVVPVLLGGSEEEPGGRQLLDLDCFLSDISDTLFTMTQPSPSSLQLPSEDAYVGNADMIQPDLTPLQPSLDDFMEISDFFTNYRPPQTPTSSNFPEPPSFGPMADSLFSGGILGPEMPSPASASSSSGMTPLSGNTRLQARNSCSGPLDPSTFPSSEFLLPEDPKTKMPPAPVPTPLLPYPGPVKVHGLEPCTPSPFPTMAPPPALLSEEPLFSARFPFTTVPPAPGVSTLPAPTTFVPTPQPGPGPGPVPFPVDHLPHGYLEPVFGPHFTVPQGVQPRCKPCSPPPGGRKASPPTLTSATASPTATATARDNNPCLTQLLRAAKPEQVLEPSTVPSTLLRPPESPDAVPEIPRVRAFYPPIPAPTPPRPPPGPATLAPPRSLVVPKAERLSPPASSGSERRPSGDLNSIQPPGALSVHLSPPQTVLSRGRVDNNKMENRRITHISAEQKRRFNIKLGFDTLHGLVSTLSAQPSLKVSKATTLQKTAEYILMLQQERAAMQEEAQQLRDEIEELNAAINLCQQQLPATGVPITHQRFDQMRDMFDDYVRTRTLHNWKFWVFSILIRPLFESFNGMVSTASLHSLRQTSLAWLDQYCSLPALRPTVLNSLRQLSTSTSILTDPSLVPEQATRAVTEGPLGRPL", "assay": "EMSA; purified ChREBP", "conditions": "label: 32P", "experimental": "Purified ChREBP was incubated with PKA and/or PP2A in vitro and measured by gel-shift analysis with the [³²P]-radiolabeled WT oligonucleotide. Purified ChREBP was incubated for 20 min with ATP (1 mM), PKA (0.1 U/μl), 0.2 U/μl PKI, 0.025 U/μl PP2A and the PP2A inhibitor, okadaic acid (10 nM)."}, "[6]": {"biological_target": "T2, ChREBP, purified from rat liver", "assay": "pulldown; DNA-affinity column; eluted at 0.8 M KCl"}}, "data": [{"molecule": "CCCC(=O)Nc1ncnc2c1ncn2[C@@H]1O[C@@H]2COP(=O)(O)O[C@H]2[C@H]1OC(=O)CCC", "note": "[db-cAMP, Dibutyryl (db)-cAMP]", "values": [{"measurement": "transcriptional activity of S196A+T666A ChREBP double mutant", "setting": "L-PK gene", "result": "not inhibited"}, {"measurement": "export of GFP-ChREBP from nuclei to cytoplasm", "setting": "GFP-fused ChREBP", "result": "not exported"}, {"measurement": "time after injection to inactivation of ChREBP DNA-binding activity in liver nuclear extracts", "setting": "ChREBP [1]", "result": "≤ 10", "unit": "min"}]}, {"molecule": "CCCCCCCC(=O)O", "note": "[octanoate]", "values": [{"measurement": "AMP", "setting": "cultured hepatocytes", "result": "942 ± 106", "unit": "nmol/g cells"}, {"measurement": "AMP/ATP ratio", "setting": "cultured hepatocytes", "result": "0.30 ± 0.03"}, {"measurement": "increase of AMPK activity compared to absence of fatty acid", "setting": "AMPK", "result": "about two-fold"}]}, {"molecule": "PP2A: catalytic subunit of protein phosphatase 2A", "values": [{"measurement": "DNA-binding activity of inactivated ChREBP", "setting": "ChREBP [2]", "result": "restored"}, {"measurement": "DNA-binding activity of 32P-phosphorylated bHLH/ZIP domain on incubation with PP2A", "setting": "[3]", "result": "complete recovering of the activity"}]}, {"molecule": "catalytic subunit of cAMP-dependent protein kinase (PKA)", "values": [{"measurement": "radiolabeling of ChREBP with γ-[32P]-ATP (SDS-PAGE)", "setting": "[4]", "result": "leads to radiolabeling of ChREBP"}]}, {"molecule": "B1", "values": [{"measurement": "binding result", "setting": "[5]", "result": "binds"}]}, {"molecule": "B2", "values": [{"measurement": "binding result", "setting": "[6]", "result": "binds"}]}]}
